Data published in ChEMBL document CHEMBL1143288, “(-)-Cercosporamide derivatives as novel antihyperglycemic agents” (Bioorg Med Chem Lett, 2009).
pIC50: −log10 of the molar value. Activity calls are given as the source filed them. No cut-off for these calls is given here.

Legend:
[1] = molecular target: T1, Protein kinase C-like 1 (Candida albicans, UniProt P43057); test: Inhibition of Candida albicans Pkc1 expressed in insect Sf9 cells by scintillation proximity assay
T1 sequence (P43057 whole entry): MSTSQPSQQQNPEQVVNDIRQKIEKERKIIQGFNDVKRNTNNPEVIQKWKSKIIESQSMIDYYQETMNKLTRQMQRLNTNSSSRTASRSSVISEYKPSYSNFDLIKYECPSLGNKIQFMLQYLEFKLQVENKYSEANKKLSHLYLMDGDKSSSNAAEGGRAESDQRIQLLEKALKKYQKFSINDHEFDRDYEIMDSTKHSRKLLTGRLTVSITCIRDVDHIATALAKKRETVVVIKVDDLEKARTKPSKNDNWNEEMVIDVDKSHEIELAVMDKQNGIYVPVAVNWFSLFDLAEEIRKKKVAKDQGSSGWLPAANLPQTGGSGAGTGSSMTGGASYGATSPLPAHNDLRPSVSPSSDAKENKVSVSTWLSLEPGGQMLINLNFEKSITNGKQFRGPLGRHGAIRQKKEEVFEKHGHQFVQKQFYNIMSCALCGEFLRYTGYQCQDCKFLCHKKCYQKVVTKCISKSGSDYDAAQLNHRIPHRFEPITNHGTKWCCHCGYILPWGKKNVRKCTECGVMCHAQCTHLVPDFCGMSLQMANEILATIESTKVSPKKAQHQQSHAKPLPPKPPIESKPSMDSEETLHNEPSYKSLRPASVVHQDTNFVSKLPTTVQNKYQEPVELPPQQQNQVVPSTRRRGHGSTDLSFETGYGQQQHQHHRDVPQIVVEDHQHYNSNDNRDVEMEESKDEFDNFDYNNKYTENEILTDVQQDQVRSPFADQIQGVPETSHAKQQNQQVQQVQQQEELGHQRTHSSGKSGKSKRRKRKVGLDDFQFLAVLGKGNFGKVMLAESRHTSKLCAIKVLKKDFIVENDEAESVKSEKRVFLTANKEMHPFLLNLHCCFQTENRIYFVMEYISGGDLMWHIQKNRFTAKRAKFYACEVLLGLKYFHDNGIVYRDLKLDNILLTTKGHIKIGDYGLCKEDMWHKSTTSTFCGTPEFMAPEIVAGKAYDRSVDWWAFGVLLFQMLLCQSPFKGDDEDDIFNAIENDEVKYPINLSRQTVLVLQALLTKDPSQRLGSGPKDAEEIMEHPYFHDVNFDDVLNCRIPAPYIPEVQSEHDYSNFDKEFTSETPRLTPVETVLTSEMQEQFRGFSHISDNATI

[2] = molecular target: T2, Protein kinase C beta type (Homo sapiens, UniProt P05771); test: Inhibition of human PKCbeta by scintillation proximity assay
Target sequence in this assay (P05771 whole entry): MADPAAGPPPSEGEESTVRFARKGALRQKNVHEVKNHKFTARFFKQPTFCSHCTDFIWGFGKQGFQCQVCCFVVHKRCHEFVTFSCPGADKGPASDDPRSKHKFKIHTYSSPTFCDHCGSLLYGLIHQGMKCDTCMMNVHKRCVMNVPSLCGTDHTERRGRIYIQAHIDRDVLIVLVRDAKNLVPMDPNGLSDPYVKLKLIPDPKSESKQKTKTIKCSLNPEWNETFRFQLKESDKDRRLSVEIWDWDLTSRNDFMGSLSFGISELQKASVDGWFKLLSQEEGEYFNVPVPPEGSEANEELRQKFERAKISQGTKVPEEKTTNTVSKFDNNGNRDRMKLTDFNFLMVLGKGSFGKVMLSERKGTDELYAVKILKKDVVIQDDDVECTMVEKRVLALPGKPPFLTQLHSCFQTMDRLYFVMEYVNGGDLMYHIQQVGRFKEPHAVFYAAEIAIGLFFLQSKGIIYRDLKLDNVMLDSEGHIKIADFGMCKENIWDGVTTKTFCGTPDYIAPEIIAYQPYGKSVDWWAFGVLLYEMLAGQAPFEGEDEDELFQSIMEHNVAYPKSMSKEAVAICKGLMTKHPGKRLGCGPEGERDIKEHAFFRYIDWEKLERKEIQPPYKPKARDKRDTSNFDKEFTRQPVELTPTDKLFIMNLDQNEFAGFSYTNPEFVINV

[3] = molecular target: Protein kinase C gamma type (Homo sapiens, UniProt P05129); test: Inhibition of human PKCgamma by scintillation proximity assay
[4] = molecular target: T3, Protein kinase C alpha type (Homo sapiens, UniProt P17252); test: Inhibition of human PKCalpha by scintillation proximity assay
[5] = test system: Mus musculus; test: Antihyperglycemic activity in hyperglycemic KK/Ta mouse assessed as plasma glucose level administered with diet in ratio of 0.003% for 1 week; assay type: functional
[6] = test system: Mus musculus; test: Antihyperglycemic activity in hyperglycemic KK/Ta mouse assessed as body weight administered with diet in ratio of 0.003% for 1 week measured on day 7; assay type: ADME, organism-based; settings: in vivo, po, 168 h
[7] = test system: Mus musculus; test: Antihyperglycemic activity in hyperglycemic KK/Ta mouse assessed as food intake administered with diet in ratio of 0.003% for 1 week measured on day 7; assay type: ADME, organism-based; settings: in vivo, po, 168 h
[8] = test system: Mus musculus; test: Antihyperglycemic activity in hyperglycemic KK/Ta mouse assessed as change in plasma glucose level administered with diet in ratio of 0.1% for 1 week relative to control; assay type: functional
[9] = test system: Mus musculus; test: Antihyperglycemic activity in hyperglycemic KK/Ta mouse assessed as plasma glucose level administered with diet in ratio of 0.01% for 1 week; assay type: functional
[10] = test system: Mus musculus; test: Antihyperglycemic activity in hyperglycemic KK/Ta mouse assessed as body weight administered with diet in ratio of 0.01% for 1 week measured on day 7; assay type: ADME, organism-based; settings: in vivo, po, 168 h
[11] = test system: Mus musculus; test: Antihyperglycemic activity in hyperglycemic KK/Ta mouse assessed as food intake administered with diet in ratio of 0.01% for 1 week measured on day 7; assay type: ADME, organism-based; settings: in vivo, po, 168 h
[12] = test system: Mus musculus; test: Antihyperglycemic activity in hyperglycemic KK/Ta mouse assessed as plasma glucose level administered with diet in ratio of 0.03% for 1 week; assay type: functional
[13] = test system: Mus musculus; test: Antihyperglycemic activity in hyperglycemic KK/Ta mouse assessed as body weight administered with diet in ratio of 0.03% for 1 week measured on day 7; assay type: ADME, organism-based; settings: in vivo, po, 168 h
[14] = test system: Mus musculus; test: Antihyperglycemic activity in hyperglycemic KK/Ta mouse assessed as food intake administered with diet in ratio of 0.03% for 1 week measured on day 7; assay type: ADME, organism-based; settings: in vivo, po, 168 h
[15] = test system: Mus musculus; test: Antihyperglycemic activity in hyperglycemic KK/Ta mouse assessed as plasma glucose level administered with diet in ratio of 0.1% for 1 week; assay type: functional
[16] = test system: Mus musculus; test: Antihyperglycemic activity in hyperglycemic KK/Ta mouse assessed as body weight administered with diet in ratio of 0.1% for 1 week measured on day 7; assay type: ADME, organism-based; settings: in vivo, po, 168 h
[17] = test system: Mus musculus; test: Antihyperglycemic activity in hyperglycemic KK/Ta mouse assessed as food intake administered with diet in ratio of 0.1% for 1 week measured on day 7; assay type: ADME, organism-based; settings: in vivo, po, 168 h
[18] = test system: Mus musculus; test: Antihyperglycemic activity in hyperglycemic KK/Ta mouse assessed as effect on body weight administered with diet in ratio of 0.1% for 1 week measured on day 7 relative to control; assay type: ADME, organism-based; settings: in vivo, po, 168 h
[19] = test system: Mus musculus; test: Antihyperglycemic activity in hyperglycemic KK/Ta mouse assessed as effect on food intake administered with diet in ratio of 0.1% for 1 week measured on day 7 relative to control; assay type: ADME, organism-based; settings: in vivo, po, 168 h
[20] = test system: Mus musculus; test: Antihyperglycemic activity in hyperglycemic KK/Ta mouse assessed as effect on body weight administered with diet in ratio of 0.03% for 1 week measured on day 7 relative to control; assay type: ADME, organism-based; settings: in vivo, po, 168 h
[21] = test system: Mus musculus; test: Antihyperglycemic activity in hyperglycemic KK/Ta mouse assessed as effect on food intake administered with diet in ratio of 0.03% for 1 week measured on day 7 relative to control; assay type: ADME, organism-based; settings: in vivo, po, 168 h
[22] = test system: Mus musculus; test: Antihyperglycemic activity in hyperglycemic KK/Ta mouse assessed as change in plasma glucose level administered with diet in ratio of 0.03% administered for 1 week relative to control; assay type: functional
[23] = molecular target: T3, Protein kinase C alpha type; test: Inhibition of PKCalpha at 1 uM
[24] = molecular target: T2, Protein kinase C beta type; test: Inhibition of PKCbeta1 at 1 uM
Target sequence in this assay (P05771 2-671 limits assumed): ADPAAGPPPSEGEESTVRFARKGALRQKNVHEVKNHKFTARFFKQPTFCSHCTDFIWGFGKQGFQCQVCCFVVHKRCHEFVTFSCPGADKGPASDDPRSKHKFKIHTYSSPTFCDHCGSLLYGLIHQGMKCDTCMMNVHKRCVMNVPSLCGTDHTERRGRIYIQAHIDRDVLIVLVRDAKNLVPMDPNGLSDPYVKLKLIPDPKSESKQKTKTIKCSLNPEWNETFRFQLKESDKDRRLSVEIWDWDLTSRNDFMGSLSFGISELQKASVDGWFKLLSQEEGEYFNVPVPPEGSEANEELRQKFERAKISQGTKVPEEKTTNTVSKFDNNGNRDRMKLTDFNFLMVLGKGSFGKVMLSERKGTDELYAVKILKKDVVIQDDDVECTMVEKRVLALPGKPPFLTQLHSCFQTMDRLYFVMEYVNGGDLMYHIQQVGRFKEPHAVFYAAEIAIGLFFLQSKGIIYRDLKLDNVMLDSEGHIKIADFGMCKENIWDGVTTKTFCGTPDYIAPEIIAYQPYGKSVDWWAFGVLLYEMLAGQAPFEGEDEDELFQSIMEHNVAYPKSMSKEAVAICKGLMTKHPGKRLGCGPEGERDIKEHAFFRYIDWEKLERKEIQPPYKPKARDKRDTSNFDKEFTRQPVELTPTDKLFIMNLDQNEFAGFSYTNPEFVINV

[25] = molecular target: Protein kinase C delta type (Homo sapiens) (UniProt Q05655); test: Inhibition of PKCdelta at 1 uM
[26] = molecular target: T4, Protein kinase C epsilon type (Homo sapiens) (UniProt Q02156); test: Inhibition of PKCepsilon at 1 uM
T4 sequence (whole entry): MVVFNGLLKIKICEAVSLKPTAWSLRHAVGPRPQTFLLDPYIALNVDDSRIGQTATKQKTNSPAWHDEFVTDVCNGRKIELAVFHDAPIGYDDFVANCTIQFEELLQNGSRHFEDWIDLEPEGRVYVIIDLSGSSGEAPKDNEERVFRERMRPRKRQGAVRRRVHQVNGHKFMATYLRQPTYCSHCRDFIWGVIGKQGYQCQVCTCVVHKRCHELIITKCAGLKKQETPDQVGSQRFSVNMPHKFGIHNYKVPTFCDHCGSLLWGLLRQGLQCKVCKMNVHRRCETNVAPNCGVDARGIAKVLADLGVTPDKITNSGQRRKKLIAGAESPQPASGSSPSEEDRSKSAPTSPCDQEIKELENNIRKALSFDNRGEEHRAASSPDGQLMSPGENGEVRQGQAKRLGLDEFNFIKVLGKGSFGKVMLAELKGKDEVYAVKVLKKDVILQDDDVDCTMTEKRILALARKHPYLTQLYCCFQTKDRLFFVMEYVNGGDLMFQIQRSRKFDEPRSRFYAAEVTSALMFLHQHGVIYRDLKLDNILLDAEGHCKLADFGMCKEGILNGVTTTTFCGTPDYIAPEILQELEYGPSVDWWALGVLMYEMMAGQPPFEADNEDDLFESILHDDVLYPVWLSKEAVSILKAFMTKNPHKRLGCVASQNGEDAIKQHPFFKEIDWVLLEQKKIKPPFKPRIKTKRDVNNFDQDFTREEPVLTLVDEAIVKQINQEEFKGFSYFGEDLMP

[27] = molecular target: Protein kinase C eta type (Homo sapiens) (UniProt P24723); test: Inhibition of PKCeta at 1 uM
[28] = molecular target: T5, Protein kinase C zeta type (Homo sapiens) (UniProt Q05513); test: Inhibition of PKCzeta at 1 uM
T5 sequence (whole entry): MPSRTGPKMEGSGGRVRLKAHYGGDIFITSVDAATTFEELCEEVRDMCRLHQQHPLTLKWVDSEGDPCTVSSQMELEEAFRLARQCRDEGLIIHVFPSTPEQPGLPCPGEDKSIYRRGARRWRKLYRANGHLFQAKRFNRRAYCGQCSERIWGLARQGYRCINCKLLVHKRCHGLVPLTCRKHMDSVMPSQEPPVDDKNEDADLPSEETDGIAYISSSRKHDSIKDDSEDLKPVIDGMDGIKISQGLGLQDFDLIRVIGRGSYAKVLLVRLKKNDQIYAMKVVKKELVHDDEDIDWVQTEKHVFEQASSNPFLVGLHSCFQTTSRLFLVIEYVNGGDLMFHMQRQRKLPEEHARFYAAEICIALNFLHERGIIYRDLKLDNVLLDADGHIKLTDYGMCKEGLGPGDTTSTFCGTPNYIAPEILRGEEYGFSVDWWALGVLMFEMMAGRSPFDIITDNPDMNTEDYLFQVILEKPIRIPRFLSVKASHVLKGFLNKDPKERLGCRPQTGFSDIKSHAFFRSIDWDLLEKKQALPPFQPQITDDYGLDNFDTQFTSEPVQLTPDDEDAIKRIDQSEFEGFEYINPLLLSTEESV

[29] = molecular target: T2, Protein kinase C beta type; test: Inhibition of PKCbeta2 at 1 uM
Target sequence in this assay (P05771 2-671 limits assumed): as the sequence (P05771 2-671 limits assumed) above

Sequence of Protein kinase C delta type (Homo sapiens) (Q05655 whole entry, looked up): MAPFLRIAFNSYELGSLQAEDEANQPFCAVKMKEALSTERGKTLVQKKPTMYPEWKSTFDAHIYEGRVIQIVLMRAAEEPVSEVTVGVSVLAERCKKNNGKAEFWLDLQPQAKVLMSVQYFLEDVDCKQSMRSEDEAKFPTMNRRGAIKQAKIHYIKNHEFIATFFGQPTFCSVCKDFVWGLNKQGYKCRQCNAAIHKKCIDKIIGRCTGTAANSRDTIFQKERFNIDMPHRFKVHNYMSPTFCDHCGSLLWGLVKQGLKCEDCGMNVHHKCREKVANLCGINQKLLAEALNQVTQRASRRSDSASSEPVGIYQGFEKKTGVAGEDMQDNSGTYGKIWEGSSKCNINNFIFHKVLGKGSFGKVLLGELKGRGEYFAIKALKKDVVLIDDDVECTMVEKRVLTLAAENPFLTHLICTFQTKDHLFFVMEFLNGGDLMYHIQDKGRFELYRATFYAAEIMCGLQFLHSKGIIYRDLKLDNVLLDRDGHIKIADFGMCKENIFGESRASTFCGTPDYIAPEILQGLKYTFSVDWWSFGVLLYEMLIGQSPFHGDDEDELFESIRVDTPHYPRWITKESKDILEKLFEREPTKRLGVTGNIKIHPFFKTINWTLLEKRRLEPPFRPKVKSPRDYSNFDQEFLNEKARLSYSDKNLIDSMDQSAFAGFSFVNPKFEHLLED
Sequence of Protein kinase C eta type (Homo sapiens) (P24723 whole entry): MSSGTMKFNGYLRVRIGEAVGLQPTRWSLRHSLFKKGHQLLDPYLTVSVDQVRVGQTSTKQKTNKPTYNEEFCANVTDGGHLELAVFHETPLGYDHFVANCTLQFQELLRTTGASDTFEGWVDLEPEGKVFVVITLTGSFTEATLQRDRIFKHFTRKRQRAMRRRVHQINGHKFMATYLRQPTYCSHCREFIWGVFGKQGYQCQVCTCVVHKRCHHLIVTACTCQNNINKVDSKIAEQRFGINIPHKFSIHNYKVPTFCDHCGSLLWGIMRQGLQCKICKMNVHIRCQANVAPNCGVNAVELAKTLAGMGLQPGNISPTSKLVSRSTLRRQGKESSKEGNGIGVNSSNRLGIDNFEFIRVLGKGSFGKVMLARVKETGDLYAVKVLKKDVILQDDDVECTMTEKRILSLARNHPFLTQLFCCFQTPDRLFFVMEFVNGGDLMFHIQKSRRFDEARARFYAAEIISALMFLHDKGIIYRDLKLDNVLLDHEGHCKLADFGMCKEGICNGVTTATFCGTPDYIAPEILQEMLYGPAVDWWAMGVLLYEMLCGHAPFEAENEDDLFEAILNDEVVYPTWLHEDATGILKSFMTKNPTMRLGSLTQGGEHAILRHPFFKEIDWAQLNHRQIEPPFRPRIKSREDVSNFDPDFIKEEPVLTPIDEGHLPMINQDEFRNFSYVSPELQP

Activity [19] [%]	Activity [21] [%]	Compound	Activity [8] [%]	Activity [18] [%]	Activity [20] [%]	Activity [22] [%]	further results
	94	CC(=O)C1=C(O)C=C2Oc3c4c(cc(O)c3[C@]2(C)C1=O)OC(C)(c1ccccc1)NC4=O (stereo partly specified)			100	54	
37		COc1cc(O)c2c(c1C(N)=O)OC1=CC(O)=C(C(C)=O)C(=O)[C@]12C	70	83			
	106	CC(=O)C1=C(O)C=C2Oc3c4c(cc(O)c3[C@]2(C)C1=O)OC1(CCCC1)NC4=O			102	7	
	104	CC(=O)C1=C(O)C=C2Oc3c4c(cc(O)c3[C@]2(C)C1=O)OC1(CCCCC1)NC4=O			104	38	
78	92	CC(=O)C1=C(O)C=C2Oc3c4c(cc(O)c3[C@]2(C)C1=O)OC(C)(C)NC4=O	56	102	102	35	Activity [23]: inactive; Activity [24]: inactive; Activity [25]: inactive; Activity [26]: inactive; Activity [27]: inactive; Activity [28]: inactive; Activity [29]: inactive

Further lines, the compound ahead of its results:

Compound	Activity [19] [%]	Activity [21] [%]	Activity [8] [%]	Activity [18] [%]	Activity [20] [%]	Activity [22] [%]	further results
CC(=O)C1=C(O)C=C2Oc3c(C(N)=O)c(O)cc(O)c3[C@]2(C)C1=O	34		71	83			pIC50 [1]: 7.36; pIC50 [2]: 6.46; pIC50 [3]: 5.24; pIC50 [4]: 5.99; Activity [5]: 571 mg/dL; Activity [6]: 48.4 g; Activity [7]: 5.78 g/day; Activity [9]: 408 mg/dL; Activity [10]: 47 g; Activity [11]: 4.81 g/day; Activity [12]: 272 mg/dL; Activity [13]: 45.9 g; Activity [14]: 3.65 g/day; Activity [15]: 176 mg/dL; Activity [16]: 39.1 g; Activity [17]: 1.89 g/day
CC1=NOC2C=C3Oc4c(C(N)=O)c(O)cc(O)c4[C@]3(C)C(=O)C12 (stereo partly specified)	126		1	102			
COc1cc(OC)c2c(c1C(N)=O)OC1=CC(O)=C(C(C)=O)C(=O)[C@]12C	92		26	100			
COc1cc(OC)c2c(c1C(=O)N(C)C)OC1=CC(O)=C(C(C)=O)C(=O)[C@]12C	95		14	96			
CC(=O)C1=C(O)CC2Oc3c(C(N)=O)c(O)cc(O)c3[C@]2(C)C1=O (stereo partly specified)	111		29	101			
